{
  "source": "ChEMBL document CHEMBL5247589",
  "about": "“Natural occurrence, bioactivity, and biosynthesis of triene-ansamycins” (Eur J Med Chem, 2022)",
  "key": {"[1]": {"system": "HeLa", "assay": "Antitumor activity against human HeLa cells assessed as cell growth inhibition incubated for 72 hrs by MTT assay", "format": "functional, cell-based"}, "[2]": {"system": "HeLa", "assay": "Antiproliferative activity against human HeLa cells incubated for 72 hrs by absorbance based assay", "format": "functional, cell-based"}, "[3]": {"system": "NCI-H1299", "assay": "Antiproliferative activity against human H1299 cells incubated for 72 hrs by absorbance based assay", "format": "functional, cell-based", "conditions": "NCI-H1299, 72 h"}, "[4]": {"system": "PANC-1", "assay": "Antitumor activity against human PANC-1", "format": "functional, cell-based", "conditions": "pooled result: one value given for 3 cell lines, strains, targets or settings"}, "[5]": {"system": "HeLa", "assay": "Antitumor activity against human HeLa cells", "format": "functional, cell-based"}, "[6]": {"system": "PANC-1", "assay": "Antitumor activity against human PANC-1 cells assessed as cell growth inhibition incubated for 48 hrs by CCK-8 assay", "format": "functional, cell-based", "conditions": "PANC-1, 48 h"}, "[7]": {"system": "SW1990", "assay": "Antitumor activity against human SW1990 cells assessed as cell growth inhibition incubated for 48 hrs by CCK-8 assay", "format": "functional, cell-based", "conditions": "SW1990, 48 h"}, "[8]": {"system": "L5178Y", "assay": "Cytotoxicity against mouse L5178Y", "format": "toxicity, cell-based"}, "[9]": {"system": "HeLa", "assay": "Antitumor activity against human HeLa cells assessed as cell growth inhibition incubated for 3 days", "format": "functional, cell-based", "conditions": "72 h"}, "[10]": {"system": "COLO 201", "assay": "Antitumor activity against human COL0201 cells assessed as cell growth inhibition incubated for 3 days", "format": "functional, cell-based", "conditions": "COLO 201, 72 h"}, "[11]": {"system": "C-33-A", "assay": "Antitumor activity against human C33A cells assessed as cell growth inhibition incubated for 3 days", "format": "functional, cell-based", "conditions": "72 h"}, "[12]": {"system": "MCF7", "assay": "Antitumor activity against human MCF7 cells assessed as cell growth inhibition incubated for 3 days", "format": "functional, cell-based", "conditions": "MCF7, 72 h"}, "[13]": {"system": "HepG2", "assay": "Antitumor activity against human HepG2 incubated for 48 hrs by MTT assay", "format": "functional, cell-based", "conditions": "HepG2, 48 h"}, "[14]": {"system": "MCF7", "assay": "Antitumor activity against human MCF-7 incubated for 48 hrs by MTT assay", "format": "functional, cell-based", "conditions": "MCF7, 48 h"}},
  "note": "pIC50: −log10 of the molar value.",
  "data": [
    {"smiles": "CO[C@H]1/C=C/C=C/C=C/C[C@H](OC(=O)[C@@H](C)NC(=O)C2CCCCC2)[C@H](C)[C@@H](O)/C(C)=C\\CCC2=C(SC)C(=O)C=C(NC(=O)C1)C2=O", "values": [
      {"measurement": "pIC50", "setting": "[1]", "value": 7.26}
    ]},
    {"smiles": "C/C1=C/CCc2c(O)c(cc3c2SCC(=O)N3)NC(=O)C[C@@H](O)/C=C/C=C/C=C/C[C@H](O)[C@H](C)[C@H]1O", "values": [
      {"measurement": "pIC50", "setting": "[2]", "value": 5.00},
      {"measurement": "pIC50", "setting": "[3]", "value": "< 5.00"}
    ]},
    {"smiles": "CO[C@H]1/C=C/C=C/C=C/C[C@H](OC(=O)[C@@H](C)NC(=O)C2CCCCC2)[C@H](C)[C@@H](O)/C(C)=C\\CCC2=CC(=O)C(SC)=C(NC(=O)C1)C2=O", "values": [
      {"measurement": "pIC50", "setting": "[1]", "value": 7.00}
    ]},
    {"smiles": "CC[C@H](C)C(=O)N[C@H](C)C(=O)O[C@H]1C/C=C/C=C/C=C/[C@H](OC)CC(=O)Nc2cc(O)cc(c2)CC/C=C(/C)[C@H](O)[C@H]1C", "values": [
      {"measurement": "pIC50", "setting": "[4]", "value": 6.47}
    ]},
    {"smiles": "CO[C@H]1/C=C/C=C/C=C/C[C@H](OC(=O)[C@@H](C)NC(=O)C2CCCCC2)[C@H](C)[C@@H](O)/C(C)=C\\CCc2cc(O)c(SC)c(c2O)NC(=O)C1", "values": [
      {"measurement": "pIC50", "setting": "[5]", "value": 7.82}
    ]},
    {"smiles": "CO[C@@H]1CC(=O)Nc2c(O)c3cc4c2[C@@H](/C=C/C=C/C[C@H](OC(=O)[C@@H](C)NC(=O)C2CCCCC2)[C@H](C)[C@@H](O)/C(C)=C\\CC3)[C@H]1O4", "values": [
      {"measurement": "pIC50", "setting": "[6]", "value": 5.33},
      {"measurement": "pIC50", "setting": "[7]", "value": 5.33}
    ]},
    {"smiles": "CO[C@@H]1CC(=O)Nc2c(O)c3cc4c2[C@H](/C=C/C=C/C[C@H](OC(=O)[C@@H](C)NC(=O)C2=CCCCC2)[C@H](C)[C@@H](O)/C(C)=C\\CC3)[C@H]1O4", "values": [
      {"measurement": "pIC50", "setting": "[6]", "value": "< 5.00"},
      {"measurement": "pIC50", "setting": "[7]", "value": "< 5.00"}
    ]},
    {"smiles": "CO[C@H]1/C=C/C=C/C=C/C[C@H](OC(=O)[C@@H](C)NC(=O)C2CCCC(O)C2)[C@H](C)[C@@H](O)/C(C)=C\\CCc2cc(O)cc(c2O)NC(=O)C1", "note": "(some centres not stated)", "values": [
      {"measurement": "MIC", "setting": "[8]", "value": 4.89, "unit": "µM"}
    ]},
    {"smiles": "CO[C@@H]1CC(=O)Nc2c(O)c3cc4c2[C@H](/C=C/C=C\\C[C@H](OC(=O)[C@@H](C)NC(=O)C2CCCCC2)[C@H](C)[C@@H](O)/C(C)=C\\CC3)[C@H]1O4", "values": [
      {"measurement": "pIC50", "setting": "[6]", "value": 5.16},
      {"measurement": "pIC50", "setting": "[7]", "value": 5.16}
    ]},
    {"smiles": "CO[C@H]1/C=C/C=C/C=C/C[C@H](OC(=O)[C@@H](C)NC(=O)C2CCCCC2)[C@H](C)C(=O)/C(C)=C\\CCC2=CC(=O)C=C(NC(=O)C1)C2=O", "values": [
      {"measurement": "pIC50", "setting": "[1]", "value": "< 5.00"}
    ]},
    {"smiles": "CO[C@H]1/C=C/C=C/C=C/C[C@H](OC(=O)[C@@H](C)NC(=O)C2CCCCC2)[C@H](C)[C@@H](O)/C(C)=C\\CCc2c(O)c(cc(O)c2SC)NC(=O)C1", "values": [
      {"measurement": "pIC50", "setting": "[1]", "value": 6.70}
    ]},
    {"smiles": "CO[C@H]1/C=C/C=C/C=C/C[C@H](O)[C@H](C)[C@@H](O)/C(C)=C\\CCC2=CC(=O)C=C(NC(=O)C1)C2=O", "values": [
      {"measurement": "MIC", "setting": "[8]", "value": "> 10", "unit": "µM"}
    ]},
    {"smiles": "C/C1=C/CCc2cc(O)cc(c2)NC(=O)C[C@@H](O)/C=C/C=C/C=C/C[C@H](O)[C@H](C)[C@H]1O", "values": [
      {"measurement": "pIC50", "setting": "[2]", "value": 5.00},
      {"measurement": "pIC50", "setting": "[3]", "value": "< 5.00"}
    ]},
    {"smiles": "CO[C@H]1/C=C/C=C/C=C/C[C@@H]2O[C@@](C)([C@H](O)[C@H]2C)[C@H]2CCC3=C(S2)C(=O)C=C(NC(=O)C1)C3=O", "values": [
      {"measurement": "pIC50", "setting": "[2]", "value": 5.00},
      {"measurement": "pIC50", "setting": "[3]", "value": "< 5.00"}
    ]},
    {"smiles": "CO[C@H]1/C=C/C=C/C=C/C[C@H](OC(=O)[C@@H](C)NC(=O)C2CCCCC2)[C@H](C)[C@@H](O)/C(C)=C\\CCc2c(O)c(cc3c2SCC(=O)N3)NC(=O)C1", "values": [
      {"measurement": "pIC50", "setting": "[9]", "value": 7.74},
      {"measurement": "pIC50", "setting": "[10]", "value": 7.74},
      {"measurement": "pIC50", "setting": "[11]", "value": 7.74},
      {"measurement": "pIC50", "setting": "[12]", "value": 7.74}
    ]},
    {"smiles": "CO[C@H]1/C=C/C=C/C=C/C[C@H](OC(=O)[C@@H](C)NC(=O)C2CCCC2)[C@H](C)[C@@H](O)/C(C)=C\\CCc2cc(O)cc(c2)NC(=O)C1", "values": [
      {"measurement": "pIC50", "setting": "[13]", "value": "≤ 5.17"},
      {"measurement": "pIC50", "setting": "[14]", "value": "≤ 5.17"}
    ]},
    {"smiles": "CO[C@H]1/C=C/C=C/C=C/C[C@H](O)[C@H](C)[C@@H](O)/C(C)=C\\CCc2cc(O)cc(c2O)NC(=O)C1", "values": [
      {"measurement": "MIC", "setting": "[8]", "value": 7, "unit": "µM"}
    ]},
    {"smiles": "CO[C@H]1/C=C/C=C/C=C/C[C@H](OC(=O)[C@@H](C)NC(=O)C2=CCCCC2)[C@H](C)[C@@H](O)/C(C)=C\\CCc2c(O)c(cc3c2SCC(=O)N3)NC(=O)C1", "values": [
      {"measurement": "pIC50", "setting": "[9]", "value": 7.55},
      {"measurement": "pIC50", "setting": "[10]", "value": 7.55},
      {"measurement": "pIC50", "setting": "[11]", "value": 7.55},
      {"measurement": "pIC50", "setting": "[12]", "value": 7.55}
    ]},
    {"smiles": "C/C1=C/CCc2cc(O)cc(c2)NC(=O)C[C@@H](O)/C=C/C=C/C=C/C[C@H](O)C[C@H]1O", "values": [
      {"measurement": "pIC50", "setting": "[1]", "value": "< 5.00"}
    ]},
    {"smiles": "CO[C@H]1/C=C/C=C/C=C/C[C@H](OC(=O)[C@@H](C)NC(=O)C2CCCCC2)[C@H](C)[C@@H](O)/C=C\\CCc2cc(O)cc(c2)NC(=O)C1", "values": [
      {"measurement": "pIC50", "setting": "[1]", "value": 6.07}
    ]},
    {"smiles": "CO[C@H]1/C=C/C=C/C=C/C[C@H](OC(=O)[C@@H](C)NC(=O)C2CC2)[C@H](C)[C@@H](O)/C(C)=C\\CCc2cc(O)cc(c2)NC(=O)C1", "values": [
      {"measurement": "pIC50", "setting": "[13]", "value": "< 5.00"},
      {"measurement": "pIC50", "setting": "[14]", "value": "< 5.00"}
    ]},
    {"smiles": "CO[C@@H]1CC(=O)Nc2c(O)c3cc4c2[C@H](/C=C/C=C/C[C@H](OC(=O)[C@@H](C)NC(=O)CCC(C)C)[C@H](C)[C@@H](O)/C(C)=C\\CC3)[C@H]1O4", "values": [
      {"measurement": "pIC50", "setting": "[6]", "value": "< 5.00"},
      {"measurement": "pIC50", "setting": "[7]", "value": "< 5.00"}
    ]}
  ]
}
